pEC50, pIC50: −log10 of the molar value. Where two headings read alike, the source gives them in different places.
Legend:
[1] = tested on: IL-17A secretion in activated PBMCs; experiment: IL-17A secretion in activated PBMCs; assay type: cell-based, human; conditions: human PBMCs stimulated with CD3/CD28 Dynabeads for 48 h, absolute IC50
Method: Heparin-treated whole blood from healthy human volunteers was supplied from Hospital de Sant Pau (Barcelona) under the approval of the local ethical review board for human studies (Hospital de Sant Pau, Barcelona, Spain). Human peripheral blood mononuclear cells (PBMCs) were isolated from healthy human volunteers by density gradient centrifugation using the Ficoll-Paque (GE Healthcare). […] Cells were seeded in 384-well plate (DiscoverX), at 40,000 cells per well and cultured 2 h at 37° C. and 5% CO2.
Dose-response curves with compounds were prepared using a 5-fold serial dilution (10 concentrations) in 100% DMSO and further diluted 100-fold in culture medium. Compound solutions (5 μL) were added to the plate containing cells (final DMSO concentration of 0.1%) and incubated for 30 min. Then, cells were stimulated with CD3/CD28 Dynabeads (ThermoFisher, at a bead-to-cell ratio of 1:1) for 48 h at 37° C. and 5% CO2.
IL-17A levels in supernatant were determined by immunoassay using hIL17A QBeads (Intellicyt) and by fluorescence analysis in iQue flow cytometer following the manufacturer's instructions. Inhibition of IL-17A secretion was calculated using the following formula: inhibition=100*[1−[(x−mean basal condition)/(mean top condition−mean basal condition)]]. Activated DMSO-treated cells were used as top condition and activated GNE09461 (10 μM)-treated cells as basal condition.

[2] = molecular target: T1, RORγ ligand-binding domain fused to Gal4 (Homo sapiens, UniProt P51449); experiment: RORγ Reporter Assay (Gal4); assay type: cell-based
T1 construct: Gal4 (galactose-responsive transcription factor); expressed in transfected cells; host or cells: HEK293
T1 sequence (P51449 269-508 limits assumed): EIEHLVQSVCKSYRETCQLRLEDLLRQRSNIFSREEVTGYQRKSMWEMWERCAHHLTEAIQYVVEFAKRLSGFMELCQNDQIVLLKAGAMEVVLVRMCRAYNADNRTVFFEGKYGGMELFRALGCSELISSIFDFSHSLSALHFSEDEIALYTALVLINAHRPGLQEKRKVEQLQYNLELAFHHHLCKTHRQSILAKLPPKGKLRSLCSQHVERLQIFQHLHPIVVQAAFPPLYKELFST
Method: The HEK293 cell line is co-transfected transiently with two plasmids, one with the RORγ ligand-binding domain fused to galactose-responsive transcription factor (Gal4), and the other with the luciferase reporter gene and Gal binding sites (UAS). This construction allows to determine the RORγ activity in a cellular system through the measurement of luminescence.
A suspension of RORγ reporter cells was dispensed into plates and cultured 2 h at 37° C. and 5% CO2. Media formulation consisted in DMEM/F-12 medium (Gibco) supplemented with 10% heat inactivated FBS (Sigma-Aldrich), non-essential aminoacids (Sigma-Aldrich), 2 mM Glutamax (Gibco) and 100 U/mL penicillin (Sigma-Aldrich). Dose-response curves with compounds were prepared in 100% DMSO and further diluted 100-fold in culture medium. Compound solutions were added to the plate containing cells (final DMSO concentration of 0.1%) and incubated for 24 h at 37° C. and 5% CO2. Luciferase detection reagent was added to each well, and relative light units (RLUs) were quantified from each assay well using a plate reading luminometer.
Values of average RLU±S.D. were computed for all treatment sets, followed by the calculations of percent-reduction of RORγ activity in response to respective test compound. The following formula was used: activity=100*[1−[x test compound/average vehicle] where the theoretical minimum reduction (0% reduction).

[3] = HEK293 cells co-transfected with RORγ LBD-Gal4 and luciferase reporter, 24 h incubation, absolute EC50, read-out: EC50

pEC50 [2, 3]	SMILES	other results
7.82	COC(=O)C1(CNc2ncnc(N(Cc3ccc(C(F)(F)F)cc3)C3CC3)c2F)CCN(CC(N)=O)CC1 [Example A7-08, methyl 1-(2-amino-2-oxoethyl)-4-(((6-(cyclopropyl(4-(trifluoromethyl)benzyl)amino)-5-fluoropyrimidin-4-yl)amino)methyl)piperidine-4-carboxylate]	
6.82	NC(=O)CN1CCC(F)(CNc2ncnc(N(Cc3ccc4c(c3)OCC(=O)N4)C3CC3)c2F)CC1 [Example A7-12]	
6.64	Cn1c(=O)oc2cc(CN(c3ncnc(NCC4(F)CCN(CC(N)=O)CC4)c3F)C3CC3)ccc21 [Example A7-13]	
6.51	NC(=O)CN1CCC(CNc2ncnc(N(Cc3ccc(C(F)(F)F)cn3)C3CC3)c2F)CC1 [Example A7-35, 2-(4-(((6-(cyclopropyl((5-(trifluoromethyl)pyridin-2-yl)methyl)amino)-5-fluoropyrimidin-4-yl)amino)methyl)piperidin-1-yl)acetamide]	
6.07	N#Cc1cccc(CN(c2ncnc(NCC3CCN(CC(N)=O)CC3)c2F)C2CC2)c1 [Example A7-36, 2-(4-(((6-((3-cyanobenzyl)(cyclopropyl)amino)-5-fluoropyrimidin-4-yl)amino)methyl)piperidin-1-yl)acetamide]	
6.17	NC(=O)CN1CCC(CNc2ncnc(N(Cc3ccc4c(c3)OCC(=O)N4)C3CC3)c2F)CC1 [Example A7-37]	
6.23	NC(=O)CN1CCC(CNc2ncnc(N(Cc3cccc(-n4cncn4)c3)C3CC3)c2F)CC1 [Example A7-38, 2-(4-(((6-((3-(1H-1,2,4-triazol-1-yl)benzyl)(cyclopropyl)amino)-5-fluoropyrimidin-4-yl)amino)methyl)piperidin-1-yl)acetamide]	
7.43	NC(=O)CN1CCC(CNc2ncnc(N(Cc3ccc(C(F)(F)F)cc3)C3CC3)c2F)CC1 [Example A7-39, 2-(4-(((6-(cyclopropyl(4-(trifluoromethyl)benzyl)amino)-5-fluoropyrimidin-4-yl)amino)methyl)piperidin-1-yl)acetamide]	
< 6.00	Cc1cc(CN(c2ncnc(NCC3CCN(CC(N)=O)CC3)c2F)C2CC2)c(C)cc1Cl [Example A7-46, 2-(4-(((6-((4-chloro-2,5-dimethylbenzyl)(cyclopropyl)amino)-5-fluoropyrimidin-4-yl)amino)methyl)piperidin-1-yl)acetamide]	
< 6.00	Cc1cc(CN(c2ncnc(NCC3CCN(CC(N)=O)CC3)c2F)C2CC2)cc(C)c1Cl [Example A7-53, 2-(4-(((6-((4-chloro-3,5-dimethylbenzyl)(cyclopropyl)amino)-5-fluoropyrimidin-4-yl)amino)methyl)piperidin-1-yl)acetamide]	
7.28	NC(=O)CN1CCC(CNc2ncnc(N(Cc3ccc(C(F)(F)F)cc3)C3CC3)c2F)(c2nc[nH]n2)CC1 [Example A7-80, 2-(4-(((6-(Cyclopropyl(4-(trifluoromethyl)benzyl)amino)-5-fluoropyrimidin-4-yl)amino)methyl)-4-(1H-1,2,4-triazol-3-yl)piperidin-1-yl)acetamide]	
6.74	NC(=O)CN1CCC(C(CO)Nc2ncnc(N(Cc3ccc(C(F)(F)F)cc3)C3CC3)c2F)CC1 (centres unmarked) [Example A7-87, 2-(4-(1-((6-(cyclopropyl(4-(trifluoromethyl)benzyl)amino)-5-fluoropyrimidin-4-yl)amino)-2-hydroxyethyl)piperidin-1-yl)acetamide]	
6.82	NC(=O)CN1CCC(N)(CNc2ncnc(N(Cc3ccc(C(F)(F)F)cc3)C3CC3)c2F)CC1 [Example E6-1, 2-(4-Amino-4-(((6-(cyclopropyl(4-(trifluoromethyl)benzyl)amino)-5-fluoropyrimidin-4-yl)amino)methyl)piperidin-1-yl)acetamide]	

The next lines start with the compound.

SMILES	pEC50 [2, 3]	other results
[2H]C([2H])([2H])N(Cc1ccc(C(F)(F)F)cc1)c1ncnc(NC[C@@H]2CCN(CC(N)=O)C[C@H]2O)c1F (racemic) [Example A7-60, rac-2-((3R,4R)-4-(((5-fluoro-6-((methyl-d3)(4-(trifluoromethyl)benzyl)amino)pyrimidin-4-yl)amino)methyl)-3-hydroxypiperidin-1-yl)acetamide]		pIC50 ([1]; Homo sapiens, PBMC, 48 h): 7.06
NC(=O)CN1CC[C@@H](CNc2ncnc(N(Cc3ccc(-n4cccn4)cc3)C3CC3)c2F)[C@H](O)C1 (racemic) [Example A7-86, rac-2-((3R,4R)-4-(((6-((4-(1H-pyrazol-1-yl)benzyl)(cyclopropyl)amino)-5-fluoropyrimidin-4-yl)amino)methyl)-3-hydroxypiperidin-1-yl)acetamide]		pIC50 ([1]; Homo sapiens, PBMC, 48 h): 7.26
CCN(Cc1ccc(C(F)(F)F)cc1)c1ncnc(NC[C@@H]2CCN(C(C)(C)C(N)=O)C[C@H]2O)c1F (relative stereo) [Example A7-57, rel-2-((3R,4R)-4-(((6-(ethyl(4-(trifluoromethyl)benzyl)amino)-5-fluoropyrimidin-4-yl)amino)methyl)-3-hydroxypiperidin-1-yl)-2-methylpropanamide]		pIC50 ([1]; Homo sapiens, PBMC, 48 h): 7.41
Cn1cc(-c2ccc(CN(c3ncnc(NC[C@]4(O)CCN(CC(N)=O)C[C@H]4O)c3F)C3CC3)c(F)c2)cn1 (single isomer, unassigned) [Example D5-05-1]		pIC50 [1]: 7.64
NC(=O)CN1CC[C@@H](CNc2ncnc(N(Cc3ccc(C(F)(F)F)cc3)C3CC3)c2F)[C@H](O)C1 (stereo in doubt) [Example A7-01, rac-2-((3R,4R)-4-(((6-(Cyclopropyl(4-(trifluoromethyl)benzyl)amino)-5-fluoropyrimidin-4-yl)amino)methyl)-3-hydroxypiperidin-1-yl)acetamide]		pIC50 ([1]; Homo sapiens, PBMC, 48 h): 8.06
CCN(Cc1ccc(C(F)(F)F)cc1F)c1ncnc(NC[C@@H]2CCN(CC(N)=O)C[C@H]2O)c1F (stereo in doubt) [Example A7-26, rac-2-((3R,4R)-4-(((6-(ethyl(2-fluoro-4-(trifluoromethyl)benzyl)amino)-5-fluoropyrimidin-4-yl)amino)methyl)-3-hydroxypiperidin-1-yl)acetamide]	7.77	
CC(c1ccc(C(F)(F)F)cc1)N(c1ncnc(NCC2CCN(CC(N)=O)CC2)c1F)C1CC1 (centres unmarked) [Example A7-34, 2-(4-(((6-(cyclopropyl(1-(4-(trifluoromethyl)phenyl)ethyl)amino)-5-fluoropyrimidin-4-yl)amino)methyl)piperidin-1-yl)acetamide]	7.05	pEC50 ([2]; compounds of the present disclosure, value from Table 2 herein, read-out: Gal4 assay EC50): > 7.00
Cc1ccc(C)c(CN(c2ncnc(NCC3CCN(CC(N)=O)CC3)c2F)C2CC2)c1 [Example A7-47, 2-(4-(((6-(cyclopropyl(2,5-dimethylbenzyl)amino)-5-fluoropyrimidin-4-yl)amino)methyl)piperidin-1-yl)acetamide]	< 6.00	
CC1CC(CNc2ncnc(N(Cc3ccc(C(F)(F)F)cc3)C3CC3)c2F)CCN1CC(N)=O (centres unmarked) [Example A7-48]	7.77	
NC(=O)C(CO)N1CCC(CNc2ncnc(N(Cc3ccc(C(F)(F)F)cc3)C3CC3)c2F)CC1 (centres unmarked) [Example A7-64, 2-(4-(((6-(cyclopropyl(4-(trifluoromethyl)benzyl)amino)-5-fluoropyrimidin-4-yl)amino)methyl)piperidin-1-yl)-3-hydroxypropanamide]	7.14	
Cn1cnnc1C1(CNc2ncnc(N(Cc3ccc(C(F)(F)F)cc3)C3CC3)c2F)CCN(CC(N)=O)CC1 [Example A7-83, 2-(4-(((6-(Cyclopropyl(4-(trifluoromethyl)benzyl)amino)-5-fluoropyrimidin-4-yl)amino)methyl)-4-(4-methyl-4H-1,2,4-triazol-3-yl)piperidin-1-yl)acetamide]	< 6.00	
NC(=O)CN1CCC(CNc2ncnc(N(Cc3ccc(C(F)(F)F)cc3)C3CC3)c2F)(c2ncc[nH]2)CC1 [Example A7-84, 2-(4-(((6-(Cyclopropyl(4-(trifluoromethyl)benzyl)amino)-5-fluoropyrimidin-4-yl)amino)methyl)-4-(1H-imidazol-2-yl)piperidin-1-yl)acetamide]	6.52	
